pIC50: −log10 of the molar value.
How the values were obtained:
[1] = molecular target: T1, Insulin-like growth factor 1 receptor (Homo sapiens, UniProt P08069); assay: Inhibition of human IGF1R expressed in Sf21 cells by time-resolved fluorescence assay
[2] = molecular target: T1, Insulin-like growth factor 1 receptor; assay: Inhibition IGF1R phosphorylation in human MiaPaCa2 cells; assay type: cell-based
[3] = Bioavailability in mouse; assay type: ADME, organism-based; settings: in vivo
[4] = Plasma clearance in mouse; assay type: ADME, organism-based
[5] = system: Mus musculus; assay: Dose normalized AUC in po dosed mouse; assay type: ADME, organism-based; settings: in vivo
[6] = Half life in mouse; assay type: ADME, organism-based; settings: in vivo
[7] = system: Mus musculus; assay: Dose normalized AUC in iv dosed mouse; assay type: ADME, organism-based; settings: in vivo
[8] = Drug concentration in C57BL/6 mouse plasma at 12.5 mg/kg, po after 4 hrs; assay type: ADME, organism-based, C57BL6; set-up: dose 12.5 mg/kg, route oral
[9] = system: Mus musculus; assay: In vivo inhibition of IFG1R autophosphorylation in C57BL/6 mouse lung at 12.5 mg/kg, po after 4 hrs; assay type: organism-based; set-up: dose 12.5 mg/kg, route oral; settings: C57BL6, po

T1 sequence (P08069 31-736 limits assumed): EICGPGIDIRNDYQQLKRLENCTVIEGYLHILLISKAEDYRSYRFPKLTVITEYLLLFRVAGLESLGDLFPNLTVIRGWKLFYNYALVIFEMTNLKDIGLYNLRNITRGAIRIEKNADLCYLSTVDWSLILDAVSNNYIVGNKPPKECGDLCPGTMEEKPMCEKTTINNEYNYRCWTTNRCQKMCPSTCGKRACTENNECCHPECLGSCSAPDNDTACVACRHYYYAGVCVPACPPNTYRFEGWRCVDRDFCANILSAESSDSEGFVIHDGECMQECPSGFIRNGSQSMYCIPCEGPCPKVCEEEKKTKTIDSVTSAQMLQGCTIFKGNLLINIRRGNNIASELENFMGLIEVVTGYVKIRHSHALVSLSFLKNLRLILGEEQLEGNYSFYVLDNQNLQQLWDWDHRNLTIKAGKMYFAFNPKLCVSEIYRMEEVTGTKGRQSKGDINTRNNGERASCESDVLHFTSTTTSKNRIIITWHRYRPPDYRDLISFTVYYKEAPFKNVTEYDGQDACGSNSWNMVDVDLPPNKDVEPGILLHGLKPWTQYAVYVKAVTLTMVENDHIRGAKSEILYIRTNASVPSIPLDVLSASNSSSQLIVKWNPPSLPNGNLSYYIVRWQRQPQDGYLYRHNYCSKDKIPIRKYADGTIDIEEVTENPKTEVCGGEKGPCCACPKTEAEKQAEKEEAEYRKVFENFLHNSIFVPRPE
T1 sequence (P08069 741-1367 limits assumed): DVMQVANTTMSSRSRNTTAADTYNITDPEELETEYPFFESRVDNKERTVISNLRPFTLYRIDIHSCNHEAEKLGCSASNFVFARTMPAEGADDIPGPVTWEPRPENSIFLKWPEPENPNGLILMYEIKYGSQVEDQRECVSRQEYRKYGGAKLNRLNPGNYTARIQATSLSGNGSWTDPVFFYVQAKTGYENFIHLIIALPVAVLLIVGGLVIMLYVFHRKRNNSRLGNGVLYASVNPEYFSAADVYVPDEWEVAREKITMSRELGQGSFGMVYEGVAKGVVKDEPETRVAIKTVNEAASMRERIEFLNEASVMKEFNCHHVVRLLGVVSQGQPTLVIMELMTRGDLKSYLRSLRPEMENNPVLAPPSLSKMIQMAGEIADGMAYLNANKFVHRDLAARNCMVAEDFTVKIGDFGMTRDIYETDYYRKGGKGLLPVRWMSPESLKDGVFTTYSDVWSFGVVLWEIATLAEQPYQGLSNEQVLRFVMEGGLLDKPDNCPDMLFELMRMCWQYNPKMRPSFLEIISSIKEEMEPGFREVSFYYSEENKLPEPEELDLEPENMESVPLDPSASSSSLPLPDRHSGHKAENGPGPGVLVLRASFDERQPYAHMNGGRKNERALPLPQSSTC

| SMILES | pIC50 [1] | pIC50 [2] | other results |
| --- | --- | --- | --- |
| Nc1ncnc2c1c(-c1ccc3nc(Cc4cccc(Cl)c4)[nH]c3c1)nn2[C@H]1CC[C@H](N2CCOCC2)CC1 | 6.91 | 6.43 | – |
| Nc1ncnc2c1c(-c1ccc3nc(Cc4cccs4)[nH]c3c1)nn2[C@H]1CC[C@H](N2CCOCC2)CC1 | 7.64 | 7.25 | bioavailability [3]: 9%; clearance [4]: 76.7 mL/min/kg; AUC [5]: 0.039 µmol·h/L/mg/kg; half-life [6]: 36 min; AUC [7]: 0.42 µmol·h/L/mg/kg |
| Nc1ncnc2c1c(-c1ccc3[nH]c(Cc4cccc(Cl)c4Cl)nc3c1)nn2[C@H]1CC[C@H](N2CCOCC2)CC1 | 5.63 | – | – |
| Cc1cc(-c2nn([C@H]3CC[C@H](N4CCOCC4)CC3)c3ncnc(N)c23)cc2[nH]c(Cc3ccccc3)nc12 | 5.36 | 5.55 | – |
| Nc1ncnc2c1c(-c1ccc3nc(Cc4ccccn4)[nH]c3c1)nn2[C@H]1CC[C@H](N2CCOCC2)CC1 | 5.63 | 5.58 | – |
| Cc1ccccc1Cc1nc2ccc(-c3nn([C@H]4CC[C@H](N5CCOCC5)CC4)c4ncnc(N)c34)cc2[nH]1 | 7.42 | 6.93 | – |
| Nc1ncnc2c1c(-c1ccc3nc(Cc4cccc(F)c4)[nH]c3c1)nn2[C@H]1CC[C@H](N2CCOCC2)CC1 | 7.24 | 6.85 | – |
| Nc1ncnc2c1c(-c1ccc3nc(Cc4cccc(F)c4F)[nH]c3c1)nn2[C@H]1CC[C@H](N2CCOCC2)CC1 | 6.76 | 6.71 | – |
| COc1ccccc1Cc1nc2ccc(-c3nn([C@H]4CC[C@H](N5CCOCC5)CC4)c4ncnc(N)c34)cc2[nH]1 | 7.09 | 6.85 | – |
| Nc1ncnc2c1c(-c1ccc3nc(Cc4ccc(F)cc4)[nH]c3c1)nn2[C@H]1CC[C@H](N2CCOCC2)CC1 | 6.03 | 5.90 | – |
| Nc1ncnc2c1c(-c1ccc3nc(Cc4ccccc4)[nH]c3c1)nn2[C@H]1CC[C@H](N2CCOCC2)CC1 | 7.19 | 7.03 | bioavailability [3]: 15%; clearance [4]: 38.3 mL/min/kg; AUC [5]: 0.16 µmol·h/L/mg/kg; half-life [6]: 60 min; AUC [7]: 1.1 µmol·h/L/mg/kg |
| Nc1ncnc2c1c(-c1ccc3nc(Cc4ccccc4F)[nH]c3c1)nn2[C@H]1CC[C@H](N2CCOCC2)CC1 | 7.29 | 6.77 | – |
| Cc1ccc(Cc2nc3ccc(-c4nn([C@H]5CC[C@H](N6CCOCC6)CC5)c5ncnc(N)c45)cc3[nH]2)cc1 | 7.15 | 6.59 | – |
| Cn1c(Cc2ccccc2)nc2cc(-c3nn([C@H]4CC[C@H](N5CCOCC5)CC4)c4ncnc(N)c34)ccc21 | 7.46 | 6.88 | – |
| Nc1ncnc2c1c(-c1ccc3[nH]c(Cc4ccccc4Br)nc3c1)nn2[C@H]1CC[C@H](N2CCOCC2)CC1 | 7.15 | 7.19 | – |
| Nc1ncnc2c1c(-c1ccc3[nH]c(Cc4c(Cl)cccc4Cl)nc3c1)nn2[C@H]1CC[C@H](N2CCOCC2)CC1 | 6.90 | 6.60 | – |
| CN1CCN([C@H]2C[C@@H](c3nc(-c4ccc5ccc(-c6ccccc6)nc5c4)c4c(N)nccn43)C2)CC1 | 7.43 | 7.24 | – |
| Cc1nc(Cc2nc3ccc(-c4nn([C@H]5CC[C@H](N6CCOCC6)CC5)c5ncnc(N)c45)cc3[nH]2)cs1 | 5.48 | 5.81 | – |
| Nc1ncnc2c1c(-c1ccc3nc(Cc4ccc(Cl)c(Cl)c4)[nH]c3c1)nn2[C@H]1CC[C@H](N2CCOCC2)CC1 | 6.31 | 6.37 | – |
| Nc1ncnc2c1c(-c1ccc3nc(Cc4ccc5ccccc5c4)[nH]c3c1)nn2[C@H]1CC[C@H](N2CCOCC2)CC1 | 5.88 | 5.63 | – |
| Cc1cccc(Cc2nc3ccc(-c4nn([C@H]5CC[C@H](N6CCOCC6)CC5)c5ncnc(N)c45)cc3[nH]2)c1 | 6.73 | 6.57 | – |
| Nc1ncnc2c1c(-c1ccc3[nH]c(-c4ccccc4)nc3c1)nn2[C@H]1CC[C@H](N2CCOCC2)CC1 | 6.75 | 6.10 | – |
| Nc1ncnc2c1c(-c1ccc3nc(Cc4ccsc4)[nH]c3c1)nn2[C@H]1CC[C@H](N2CCOCC2)CC1 | 7.49 | 7.08 | – |
| Nc1ncnc2c1c(-c1ccc3nc(Cc4ccc(F)c(F)c4)[nH]c3c1)nn2[C@H]1CC[C@H](N2CCOCC2)CC1 | 6.17 | 6.09 | – |
| Nc1ncnc2c1c(-c1ccc3nc(Cc4ccccc4Cl)[nH]c3c1)nn2[C@H]1CC[C@H](N2CCOCC2)CC1 | 7.43 | 7.05 | bioavailability [3]: 28%; concentration at 4 h [8]: 2400 nM; inhibition at 12.5 mg/kg [9]: 92%; clearance [4]: 20 mL/min/kg; AUC [5]: 0.43 µmol·h/L/mg/kg; half-life [6]: 72 min; AUC [7]: 1.5 µmol·h/L/mg/kg |
| Nc1ncnc2c1c(-c1ccc3nc(Cc4c(F)cccc4F)[nH]c3c1)nn2[C@H]1CC[C@H](N2CCOCC2)CC1 | 7.10 | 6.98 | – |
| Nc1ncnc2c1c(-c1ccc3[nH]c(Cc4c(F)cccc4Cl)nc3c1)nn2[C@H]1CC[C@H](N2CCOCC2)CC1 | 7.05 | 6.95 | – |
| Nc1ncnc2c1c(-c1ccc3nc(Cc4cc(F)cc(F)c4)[nH]c3c1)nn2[C@H]1CC[C@H](N2CCOCC2)CC1 | 6.82 | 6.74 | – |
| Nc1ncnc2c1c(-c1ccc3nc(Cc4ccc(Cl)cc4)[nH]c3c1)nn2[C@H]1CC[C@H](N2CCOCC2)CC1 | 6.19 | 6.20 | – |

From ChEMBL document CHEMBL1139781, “Pyrazolo[3,4-d]pyrimidines as potent inhibitors of the insulin-like growth factor receptor (IGF-IR)” (Bioorg Med Chem Lett, 2007)
